Measurements published in patent publication US20240192196A1, “NOVEL C[…]-CoV-2 SAFE REPLICON SYSTEM AND USE THEREOF” (SUN YAT-SEN UNIVERSITY, priority 2020, published 2024).

System: novel coronavirus SARS-COV-2 safe replicon system
Assay: microbe, parasite or virus in culture
Format: cell-based
Settings: Severe acute respiratory syndrome coronavirus 2, HEK-293T, read-out: IC50 (semi-inhibitory concentration), inhibition of cellular luciferase activity

Compound	IC50 [µM]
Cc1cccc(C)c1OCC(=O)N[C@@H](Cc1ccccc1)[C@@H](O)C[C@H](Cc1ccccc1)NC(=O)[C@H](C(C)C)N1CCCNC1=O [Lopinavir]	6.79 ± 1.09
CCC(CC)COC(=O)[C@H](C)N[P@](=O)(OC[C@H]1O[C@@](C#N)(c2ccc3c(N)ncnn23)[C@H](O)[C@@H]1O)Oc1ccccc1 [Remdesivir]	12.4 ± 1.08
